Results published in paper PMC6738096 (British Journal of Cancer, 2019).
Read-outs that look alike come from different tables or passages of the source.

What was measured:
[1] = Phase 1 trial: plasma pharmacokinetics of TSR-011 IR (LC-MS/MS, noncompartmental analysis); format: in vivo, human
Experimental: To evaluate PK and establish the RP2D, blood samples were collected from all patients in the phase 1 dose-escalation trial at daily doses of 30–480 mg.
Plasma samples were processed through a Biotage (Uppsala, Sweden) ISOLUTE SLE + 200 μL of a 96-well-supported liquid extraction plate. […] The validated range was 0.87–433.25 nmol/L. The assay interbatch precision, expressed as percent coefficients of variation, ranged from 6.6 to 11.7%, and the interbatch accuracy, expressed as percent bias, ranged from –4.7 to 0.5%.
PK parameters were calculated using noncompartmental analysis (Phoenix WinNonlin version 7.0, Pharsight Corporation, Mountain View, CA, USA).

[2] = Experimental: During the phase 1 trial, all patients were monitored by ECGs as part of safety evaluations. […] Cardiac function (QT, Bazett-corrected QT formula, Fridericia-corrected QT formula [QTcF], PR, QRS, RR and heart rate) was evaluated by a 12-lead ECG with triplicate readouts at scheduled time points, along with changes from baseline to each scheduled time point.
All the ΔQTcF data with matching drug concentration values were used for the analysis.

hERG [3] = molecular target: T1, hERG (Homo sapiens, UniProt Q12809); assay: hERG in vitro test, displacement of dofetilide binding
T1 sequence (Q12809 whole entry): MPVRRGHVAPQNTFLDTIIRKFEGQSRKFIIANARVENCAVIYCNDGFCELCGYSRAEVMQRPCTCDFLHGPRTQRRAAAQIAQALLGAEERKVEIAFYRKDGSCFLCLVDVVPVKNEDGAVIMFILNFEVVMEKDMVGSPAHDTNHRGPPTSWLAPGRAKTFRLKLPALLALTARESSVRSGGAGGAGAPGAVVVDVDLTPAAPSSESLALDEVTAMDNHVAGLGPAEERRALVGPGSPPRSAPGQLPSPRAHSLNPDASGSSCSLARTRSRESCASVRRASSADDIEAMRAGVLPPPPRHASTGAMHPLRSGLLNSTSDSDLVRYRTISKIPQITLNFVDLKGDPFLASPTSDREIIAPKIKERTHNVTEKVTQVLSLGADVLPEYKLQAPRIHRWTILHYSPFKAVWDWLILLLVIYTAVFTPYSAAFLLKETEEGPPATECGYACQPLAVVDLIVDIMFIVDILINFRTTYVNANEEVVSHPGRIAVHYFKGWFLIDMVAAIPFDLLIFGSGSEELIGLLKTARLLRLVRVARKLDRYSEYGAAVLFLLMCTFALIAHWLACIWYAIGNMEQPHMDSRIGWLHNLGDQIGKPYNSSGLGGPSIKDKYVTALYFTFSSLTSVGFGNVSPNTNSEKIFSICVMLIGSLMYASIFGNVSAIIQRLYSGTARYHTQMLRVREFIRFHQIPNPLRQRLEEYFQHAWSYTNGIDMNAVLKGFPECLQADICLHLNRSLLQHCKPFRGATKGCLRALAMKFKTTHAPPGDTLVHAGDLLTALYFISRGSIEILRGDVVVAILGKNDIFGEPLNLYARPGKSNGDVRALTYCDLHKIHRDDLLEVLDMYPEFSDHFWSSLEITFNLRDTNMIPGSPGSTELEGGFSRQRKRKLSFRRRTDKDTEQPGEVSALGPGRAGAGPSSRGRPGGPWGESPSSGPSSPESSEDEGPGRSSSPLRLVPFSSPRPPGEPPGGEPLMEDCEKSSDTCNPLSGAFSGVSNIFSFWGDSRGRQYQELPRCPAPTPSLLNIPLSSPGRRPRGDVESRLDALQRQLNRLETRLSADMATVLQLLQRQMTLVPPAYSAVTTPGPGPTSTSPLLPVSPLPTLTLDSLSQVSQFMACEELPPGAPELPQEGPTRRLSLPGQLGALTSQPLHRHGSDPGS

hERG [4] = molecular target: T1, hERG; assay: hERG channel functional assay; format: biochemical; conditions: read-out: IC50, inhibition of the hERG channel, functional assay
calcium channel = assay: Functional patch-clamp test, calcium channel inhibition; format: cell-based
CYP3A4 = CYP3A4 (Homo sapiens, UniProt P08684); assay: biochemical
Sequence of CYP3A4 (P08684 whole entry): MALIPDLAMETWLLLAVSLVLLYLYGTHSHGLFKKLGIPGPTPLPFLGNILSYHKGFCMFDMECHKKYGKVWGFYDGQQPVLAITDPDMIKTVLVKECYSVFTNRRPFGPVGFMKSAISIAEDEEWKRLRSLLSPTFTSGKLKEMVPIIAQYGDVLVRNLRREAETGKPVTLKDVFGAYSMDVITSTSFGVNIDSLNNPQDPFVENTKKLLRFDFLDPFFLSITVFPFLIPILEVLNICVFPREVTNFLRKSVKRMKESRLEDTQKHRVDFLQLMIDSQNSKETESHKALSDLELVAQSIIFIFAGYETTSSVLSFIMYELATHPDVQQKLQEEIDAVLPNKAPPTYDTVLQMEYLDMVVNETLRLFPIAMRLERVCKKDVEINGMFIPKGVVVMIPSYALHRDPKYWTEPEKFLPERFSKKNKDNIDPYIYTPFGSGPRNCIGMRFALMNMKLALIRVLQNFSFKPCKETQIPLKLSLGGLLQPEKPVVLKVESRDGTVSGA

CYP2D6 = CYP2D6 (Homo sapiens, UniProt P10635); assay: biochemical
Sequence of CYP2D6 (P10635 whole entry): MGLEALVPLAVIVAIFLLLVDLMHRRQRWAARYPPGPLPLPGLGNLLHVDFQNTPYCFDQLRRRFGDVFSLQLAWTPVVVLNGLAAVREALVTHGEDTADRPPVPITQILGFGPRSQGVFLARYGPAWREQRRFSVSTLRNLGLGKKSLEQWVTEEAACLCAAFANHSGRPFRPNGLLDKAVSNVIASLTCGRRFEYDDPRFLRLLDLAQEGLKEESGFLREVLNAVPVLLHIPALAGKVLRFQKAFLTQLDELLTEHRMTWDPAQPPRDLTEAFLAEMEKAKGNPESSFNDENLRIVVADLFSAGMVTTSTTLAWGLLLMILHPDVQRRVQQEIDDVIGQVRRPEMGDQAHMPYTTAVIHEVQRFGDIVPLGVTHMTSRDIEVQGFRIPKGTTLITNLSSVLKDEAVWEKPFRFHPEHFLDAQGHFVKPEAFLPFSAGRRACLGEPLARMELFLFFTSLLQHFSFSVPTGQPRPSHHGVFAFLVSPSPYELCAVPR

[5] = single dose, over the 16-fold increase in dose (30–480 mg)
[6] = steady state, over the sixfold increase in dose (80–480 mg)

CC(C)NC(=O)[C@H]1CC[C@@H](n2c(NC(=O)c3ccc(F)cc3)nc3ccc(CN4CCC(C(C)(C)O)CC4)cc32)CC1 [TSR-011]
Highest concentration observed ([1]; 40-mg IR TID cohort): 2599.50 nmol/L
Mean Ctrough ([1]; 40-mg TID (Q8h), steady state day 29): 351.38 nM
Cmax at 696 h ([1]; human, plasma, po, 40-mg TID (Q8h), steady state day 29): 528 nM
half-life ([1]; human, plasma, po, cycle 1/day 1, across cohorts): 7 to 27 h
Vd/F ([1]; human, plasma, po, cycle 1/day 1, across cohorts, read-out: Apparent volume of distribution): 188 to 1620 L
Cmax ([1]; human, plasma, cycle 2/day 1, daily oral 80–480 mg): 447 to 3330 nM
Tmax ([1]; human, plasma, cycle 2/day 1, daily oral 80–480 mg, read-out: Median tmax): 2 to 6 h
Increase in geometric mean AUC from 0 to 24 h [1, 5]: 42 fold
Increase in geometric mean Cmax [1, 5]: 41 fold
Increase in exposure for AUC from time 0 to the last measurable concentration [1, 6]: 2.9 fold
Increase in exposure for Cmax [1, 6]: 3.3 fold
Mean ΔQTcF ([2]; 120 mg QD (n = 1)): 19 ms
Upper bound of the two-sided 90% CI of mean ΔQTcF ([2]; 120 mg QD (n = 1)): 27 ms
Frequency of drug-related QTc prolongation ([2]; 40-mg TID (Q8h) RP2D): 9.7%
Patients with ΔQTc of > 60 ms and QTc > 500 ms (grade 3 event) ([2]; 40-mg TID (Q8h), one in 27 patients): 3.7%
Mean ΔQTcF ([2]; 40-mg TID cohort (n = 27), 90% CI 9.75–12.00 ms): 11 ms
ΔQTcF ([2]; QD doses at 240 mg (n = 3), 320 mg (n = 3) and 480 mg (n = 4)): > 20 ms
Slope of linear regression, plasma concentration versus ΔQTcF ([2]; all dose groups, 95% CI 0.01970–0.02747, P < 0.0001): 0.02358
Mean ΔQTcF ([2]; fractionated BID (Q12h) and TID (Q8h) regimens, cumulative daily doses of 60 and 120 mg, all four regimens): below 20 ms
Frequency of drug-related QTc prolongation ([2]; overall safety population): 16.7%
IC50 (hERG [3]): 2.3 µM
IC50 (hERG [4]): 0.172 µM
IC50 (calcium channel): > 10 µM
IC50 (CYP3A4): 23.3 µM
IC50 (CYP2D6): 32.9 µM
